Tests used:
hERG potassium channel = target: T1, hERG potassium channel (Homo sapiens, UniProt Q12809); assay: hERG potassium channel inhibitory activity test (Qpatch, CHO-hERG cells); type: cell-based; details: highest test concentration 40 μM, read-out: hERG (μM), inhibition at multiple concentrations on hERG current
T1 construct: expressed in transfected cells; host or cells: CHO-hERG cells
Procedure: 7.1.1 CHO-hERG cells were cultured in a 175 cm^2 flask, when the cell density reached 60-80%, the culture medium was removed, the cells were washed with 7 mL PBS, and then digested with 3 mL Detachin. 7.1.2 After complete digestion, 7 mL culture medium was added to neutralize, then the mixture was centrifuged, the supernatant was aspirated, and then 5 mL culture medium was added to re-suspend, ensuring 2-5×10^6/mL of cell density.
The process of single cell high impedance sealing and whole cell mode formation were all automatically completed by Qpatch instrument, after obtaining the whole cell recording mode, the cells were clamped at −80 mV, before giving a 5-second +40 mV depolarization stimulus, a 50 millisecond −50 mV prevoltage was given first, and then repolarized to −50 mV for 5 seconds, then returned to −80 mV. This voltage stimulation was applied every 15 seconds and recorded for 2 minutes before giving extracellular fluid recordings for 5 minutes, and then the administration process was started, the compound concentration was given from the lowest test concentration, each test concentration was given for 2.5 minutes, and the positive control compound 3 μM of Cisapride was given after all concentrations were continuously given. At least 3 cells (n≥3) were tested at each concentration.
7.4.1 20 mM of compound mother liquor was diluted with extracellular fluid, 5 μL of 20 mM compound mother liquor was added into 2495 μL of extracellular fluid and diluted 500-fold to 40 μM, and then the final concentration to be tested was obtained by sequential 3-fold serial dilutions in extracellular solution containing 0.2% DMSO. 7.4.2 The highest test concentration was 40 μM, in a total of 6 concentrations of 40, 13.33, 4.44, 1.48, 0.49 and 0.16 μM respectively. 7.4.3 The content of DMSO in the final test concentration was not more than 0.2%, and this concentration of DMSO had no effect on hERG potassium channel.
The experimental data were analyzed by XLFit software. […]

[1] = Plasma stability, mouse plasma; type: in vitro ADME
Procedure, shortened: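 Compound from a 10 μM working solution in 100 mM phosphate buffer was incubated at 37°C in anticoagulated plasma from each species, with propantheline as positive control. Aliquots taken at 0, 15, 30, 60, 90 and 120 min were quenched in acetonitrile with internal standard. Remaining compound was quantified by LC-MS/MS (positive ESI, MRM).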

CYP450 1A2 = target: T2, CYP450 1A2 (Homo sapiens, UniProt P05177); assay: CYP enzyme single point inhibition test, human liver microsomes, 1A2; type: in vitro ADME; details: single point method
T2 construct: from tissue; host or cells: human liver microsomes
T2 sequence (P05177 1-516): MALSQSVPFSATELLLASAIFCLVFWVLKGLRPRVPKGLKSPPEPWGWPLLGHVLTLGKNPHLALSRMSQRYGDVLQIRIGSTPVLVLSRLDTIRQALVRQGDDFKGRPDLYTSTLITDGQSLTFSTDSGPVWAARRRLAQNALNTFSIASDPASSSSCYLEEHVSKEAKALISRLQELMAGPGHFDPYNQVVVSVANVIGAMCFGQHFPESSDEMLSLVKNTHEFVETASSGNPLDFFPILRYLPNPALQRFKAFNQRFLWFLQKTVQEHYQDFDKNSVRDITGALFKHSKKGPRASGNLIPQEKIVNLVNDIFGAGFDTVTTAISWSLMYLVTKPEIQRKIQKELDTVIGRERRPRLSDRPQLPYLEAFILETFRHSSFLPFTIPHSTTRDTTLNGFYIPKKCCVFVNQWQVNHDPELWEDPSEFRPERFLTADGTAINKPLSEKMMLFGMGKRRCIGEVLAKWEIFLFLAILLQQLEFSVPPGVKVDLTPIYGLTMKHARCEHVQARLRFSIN
Procedure: (§1) Using human liver microsomal incubation system, the inhibition of CYP450 enzyme subtypes by compounds was rapidly predicted by single point method.
(§2) 2.5 mM NADPH: 100 mM phosphate buffer was added to 4.165 mg of NADPH (reduced nicotinamide adenine dinucleotide phosphate) to 2 mL. 0.25 mg/mL microsome: 4 mL of 100 mM phosphate buffer was added to 50 μL of 20 mg/mL microsome and mixed well.
(§3) The embodiment compound to be tested was weighed and diluted to 10 mM with DMSO and then diluted to 100 µM with 100 mM phosphate buffer.
(§4) • 1. In a 96-well plate, 40 μL of liver microsomes, 10 μL of substrate, 10 μL of compound to be tested were pre-incubated for 3 min. • 2. 40 μL of NADPH was added. • 3. 300 μL of acetonitrile termination solution containing internal standard was added at 20 min. • 4. Centrifugal injection.

CYP450 2D6 = target: T3, CYP450 2D6 (Homo sapiens, UniProt P10635); assay: CYP enzyme single point inhibition test, human liver microsomes, 2D6; type: in vitro ADME; details: single point method
T3 construct: from tissue; host or cells: human liver microsomes
Procedure: as §1, §2, §3, §4

CYP450 2C9 = target: T4, CYP450 2C9 (Homo sapiens, UniProt P11712); assay: CYP enzyme single point inhibition test, human liver microsomes, 2C9; type: in vitro ADME; details: single point method
T4 construct: from tissue; host or cells: human liver microsomes
Procedure: as §1, §2, §3, §4

T1 sequence (Q12809 whole entry): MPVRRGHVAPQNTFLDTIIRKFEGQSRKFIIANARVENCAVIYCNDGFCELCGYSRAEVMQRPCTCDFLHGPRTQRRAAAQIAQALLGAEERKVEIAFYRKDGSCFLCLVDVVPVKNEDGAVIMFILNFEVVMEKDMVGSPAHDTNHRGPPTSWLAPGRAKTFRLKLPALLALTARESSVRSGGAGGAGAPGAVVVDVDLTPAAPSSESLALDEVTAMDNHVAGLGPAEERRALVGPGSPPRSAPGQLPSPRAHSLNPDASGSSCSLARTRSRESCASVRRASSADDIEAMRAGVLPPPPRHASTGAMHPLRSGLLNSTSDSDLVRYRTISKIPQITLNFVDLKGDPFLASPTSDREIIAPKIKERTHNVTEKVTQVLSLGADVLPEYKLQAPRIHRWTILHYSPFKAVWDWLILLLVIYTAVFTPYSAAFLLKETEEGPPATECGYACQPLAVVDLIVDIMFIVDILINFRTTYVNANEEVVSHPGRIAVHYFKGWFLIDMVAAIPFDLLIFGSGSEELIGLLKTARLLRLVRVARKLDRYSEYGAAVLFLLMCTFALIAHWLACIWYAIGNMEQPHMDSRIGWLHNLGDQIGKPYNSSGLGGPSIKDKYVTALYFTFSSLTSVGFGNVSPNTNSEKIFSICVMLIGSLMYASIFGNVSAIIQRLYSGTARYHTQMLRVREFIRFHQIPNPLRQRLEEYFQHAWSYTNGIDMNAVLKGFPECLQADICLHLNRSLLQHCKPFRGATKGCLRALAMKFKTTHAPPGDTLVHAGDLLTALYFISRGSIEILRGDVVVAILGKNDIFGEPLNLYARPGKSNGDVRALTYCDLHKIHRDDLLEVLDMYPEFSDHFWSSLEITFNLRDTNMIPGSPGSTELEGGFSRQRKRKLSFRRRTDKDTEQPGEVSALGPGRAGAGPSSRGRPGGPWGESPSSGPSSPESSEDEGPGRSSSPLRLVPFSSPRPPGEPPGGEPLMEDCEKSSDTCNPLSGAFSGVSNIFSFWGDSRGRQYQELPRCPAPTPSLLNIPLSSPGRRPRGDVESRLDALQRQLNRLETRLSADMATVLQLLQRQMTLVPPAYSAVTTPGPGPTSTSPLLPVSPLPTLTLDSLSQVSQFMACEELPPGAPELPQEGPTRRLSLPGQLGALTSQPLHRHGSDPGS
T4 sequence (P11712 whole entry): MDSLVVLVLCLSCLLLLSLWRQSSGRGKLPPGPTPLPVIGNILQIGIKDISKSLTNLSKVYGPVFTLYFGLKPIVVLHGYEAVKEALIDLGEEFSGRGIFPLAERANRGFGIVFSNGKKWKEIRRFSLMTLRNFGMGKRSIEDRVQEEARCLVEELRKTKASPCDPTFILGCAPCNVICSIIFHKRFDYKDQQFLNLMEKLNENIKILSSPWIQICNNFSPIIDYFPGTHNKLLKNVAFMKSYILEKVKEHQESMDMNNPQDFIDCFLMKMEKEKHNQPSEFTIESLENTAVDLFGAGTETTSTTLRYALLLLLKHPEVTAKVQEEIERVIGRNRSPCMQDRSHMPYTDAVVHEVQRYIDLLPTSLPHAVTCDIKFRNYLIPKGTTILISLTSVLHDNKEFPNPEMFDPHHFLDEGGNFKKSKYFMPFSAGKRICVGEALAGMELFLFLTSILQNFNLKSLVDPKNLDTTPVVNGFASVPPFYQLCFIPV
T3 sequence (P10635 whole entry): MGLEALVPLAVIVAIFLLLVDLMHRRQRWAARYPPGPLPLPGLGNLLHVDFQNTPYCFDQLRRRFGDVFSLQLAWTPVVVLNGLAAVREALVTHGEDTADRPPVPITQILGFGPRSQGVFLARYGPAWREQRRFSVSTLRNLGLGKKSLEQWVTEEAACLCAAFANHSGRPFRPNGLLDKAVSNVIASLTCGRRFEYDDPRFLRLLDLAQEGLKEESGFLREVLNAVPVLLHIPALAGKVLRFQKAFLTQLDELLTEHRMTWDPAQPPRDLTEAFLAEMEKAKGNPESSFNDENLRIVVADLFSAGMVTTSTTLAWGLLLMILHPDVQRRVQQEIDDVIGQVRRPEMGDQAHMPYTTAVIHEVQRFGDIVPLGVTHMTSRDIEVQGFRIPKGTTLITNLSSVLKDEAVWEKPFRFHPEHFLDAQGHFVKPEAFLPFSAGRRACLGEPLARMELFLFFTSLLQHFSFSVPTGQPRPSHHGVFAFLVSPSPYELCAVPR

C=CC(=O)N1C[C@H](C)N(c2nc(=O)n(-c3c(SC)ccnc3C(C)C)c3nc(-c4c(N)ccc(Cl)c4F)c(Cl)cc23)C[C@H]1C (atropisomer, axis not shown) [Embodiment 13-1, P-4-((2S,5R)-4-Acryloyl-2,5-dimethylpiperazin-1-yl)-7-(6-amino-3-chloro-2-fluorophenyl)-6-chloro-1-(2-isopropyl-4-(methylthio)pyridin-3-yl)pyrido[2,3-d]pyrimidin-2(1H)-one]
IC50 (hERG potassium channel): > 30 µM | Residual rate (%) 0 min ([1]; mouse, 0.5 μM): 100.00% | Residual rate (%) 15 min ([1]; mouse, 0.5 μM): 100.58% | Residual rate (%) 30 min ([1]; mouse, 0.5 μM): 99.52% | Residual rate (%) 60 min ([1]; mouse, 0.5 μM): 99.64% | Residual rate (%) 120 min ([1]; mouse, 0.5 μM): 92.32% | IC50 (CYP450 1A2): 66.7 µM | IC50 (CYP450 2D6): 21.2 µM | IC50 (CYP450 2C9): 58.8 µM

P-4-((2S,5R)-4-acryloyl-2,5-dimethylpiperazin-1-yl)-6-fluoro-7-(2-fluoro-6-hydroxyphenyl)-1-(2-isopropyl-4-(methylthio)pyridin-3-yl)pyrido[2,3-d]pyrimidin-2(1H)-one [Embodiment 2-1]
IC50 (hERG potassium channel): > 30 µM | Residual rate (%) 0 min ([1]; mouse plasma, 37° C.): 100.00% | Residual rate (%) 15 min ([1]; mouse plasma, 37° C.): 102.67% | Residual rate (%) 30 min ([1]; mouse plasma, 37° C.): 98.51% | Residual rate (%) 60 min ([1]; mouse plasma, 37° C.): 95.49% | Residual rate (%) 120 min ([1]; mouse plasma, 37° C.): 84.58% | IC50 (CYP450 1A2): > 100 µM | IC50 (CYP450 2D6): > 100 µM | IC50 (CYP450 2C9): 84.6 µM
